From patent publication US9790253B2, “OSW-1 analogs and conjugates, and uses thereof” (priority 2011, dated 2017)
Residue numbers refer to the chain shown, from its start.

Key:
[1] = system: HeLa cells overexpressing OSBP1(M446W)-myc-his; experiment: Overexpression-viability assay, OSBP1(M446W)-myc-his; assay type: cell-based; settings: 48 h
Description: Overexpression-viability assays with wild-type and mutant OSBP/ORP4L constructs were carried out by transfecting HeLa cells with the appropriate plasmids using Lipofectamine™ LTX with PLUS™ reagent (Invitrogen) as instructed, and after 8 h of transfection, the cells were re-plated for the cell viability assay, performed as described above. Expression levels were evaluated by immunoblotting at the time of dosing.
For additional support that OSBP1 and ORP4L are targets of the ORPphilins, dominant drug-resistant alleles of these proteins were sought. 15 OSBP1 residues inside and outside the region of the protein previously reported to mediate sterol binding were mutated (FIG. 4C). The growth inhibition induced by the ORPphilins was determined in HeLa cells overexpressing either wild-type or mutant OSBP1-myc-his proteins. Expression of wt OSBP1-myc-his and mutant OSBP1-myc-his were nearly equivalent as measured by western blot.
The same mutant caused a 3.9-fold reduction in the antiproliferative activity of OSW-1 (2) (FIG. 4E2) and a 2.7-fold reduction in the activity of schweinfurthin A (4a) (FIG. 4E3). […] The antiproliferative activity of taxol was unaffected by expression of these two OSBP1 mutant proteins (FIGS. 4E4, 4E8).

OSBP1(M446W) = molecular target: T1, OSBP1(M446W) (Homo sapiens, UniProt P22059, M446W); experiment: [3H]-25-OHC binding, OSBP1(M446W) mutant; settings: for binding affinity for OSBP1(M446W) compared to wt OSBP1-myc-his: [3H]-25-OHC competition binding
T1 construct: made in house; host or cells: HEK-293T (transient transfection; S100 lysate, not purified)
T1 sequence (P22059 1-807 M446W): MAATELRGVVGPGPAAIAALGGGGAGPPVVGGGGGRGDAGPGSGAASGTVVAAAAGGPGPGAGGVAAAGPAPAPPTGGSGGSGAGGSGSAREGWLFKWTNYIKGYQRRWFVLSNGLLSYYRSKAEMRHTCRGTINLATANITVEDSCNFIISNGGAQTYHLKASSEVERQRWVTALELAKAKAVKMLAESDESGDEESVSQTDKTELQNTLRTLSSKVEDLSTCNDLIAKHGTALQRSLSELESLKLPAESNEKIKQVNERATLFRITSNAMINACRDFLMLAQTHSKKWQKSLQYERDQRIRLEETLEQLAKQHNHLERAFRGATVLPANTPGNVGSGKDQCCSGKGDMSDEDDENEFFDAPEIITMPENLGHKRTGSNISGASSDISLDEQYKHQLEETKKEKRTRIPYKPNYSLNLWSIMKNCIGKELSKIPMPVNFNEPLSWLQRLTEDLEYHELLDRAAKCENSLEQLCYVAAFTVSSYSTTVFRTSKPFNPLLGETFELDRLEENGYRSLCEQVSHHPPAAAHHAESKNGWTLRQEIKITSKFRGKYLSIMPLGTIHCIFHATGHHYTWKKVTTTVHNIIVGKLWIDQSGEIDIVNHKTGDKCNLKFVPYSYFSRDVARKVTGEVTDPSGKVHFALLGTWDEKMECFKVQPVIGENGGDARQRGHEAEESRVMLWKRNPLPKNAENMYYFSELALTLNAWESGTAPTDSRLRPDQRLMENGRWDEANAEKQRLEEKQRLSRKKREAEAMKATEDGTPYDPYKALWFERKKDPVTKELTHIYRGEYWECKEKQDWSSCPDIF
Description: (§1) [^3H]-25-Hydroxycholesterol charcoal-dextran binding assay.
(§2) The binding affinity of 1, 2 and 4a to the OSBP1(M446W) and OSBP1(V582M) mutants were then determined using [^3H]-25-OHC competition binding. […] Within error limits, the binding affinity of 1, 2 and 4a for these two OSBP1 mutants were unchanged compared to wt OSBP1-myc-his (FIG. 4D).

OSBP1(V582M) = molecular target: T2, OSBP1(V582M) (Homo sapiens, UniProt P22059, V582M); experiment: [3H]-25-OHC binding, OSBP1(V582M) mutant; settings: for binding affinity for OSBP1(V582M) compared to wt OSBP1-myc-his: [3H]-25-OHC competition binding
T2 construct: made in house; host or cells: HEK-293T (transient transfection; S100 lysate, not purified)
T2 sequence (P22059 1-807 V582M): T1 sequence (P22059 1-807 M446W) with W446M, V582M
Description: as §1, §2

HCT-116 cells = experiment: Growth inhibition with 25-OHC co-administration; assay type: cell-based, human; settings: for effect of 25-OHC co-administration on the antiproliferative activity: 10 μM 25-OHC for 1 and 2
Description: 25-OHC (11) is a high-affinity ligand of OSBP1 and ORP4L that is not cytotoxic at concentrations up to 10 μM. Example 1 established that the ORPphilins compete with 25-OHC for binding to OSBP1 and ORP4L (FIG. 2D,E). Therefore, if OSBP1 and ORP4L mediate the biological activities of these compounds, co-administration of sub-lethal doses of 25-OHC with the ORPphilins should inhibit binding of the ORPphilins to OSBP1 and ORP4L, thereby desensitizing cells to the cytotoxic effects of the ORPphilins.

NPC1^−/− (M12) CHO cells = experiment: Antiproliferative activity in NPC1-/- (M12) CHO cells; assay type: cell-based

Compound | reduction in antiproliferative activity at the GI50 level, OSBP1(M446W) vs wt OSBP1 [1] | binding affinity for OSBP1(M446W) compared to wt OSBP1-myc-his (OSBP1(M446W)) | binding affinity for OSBP1(V582M) compared to wt OSBP1-myc-his (OSBP1(V582M)) | effect of 25-OHC co-administration on the antiproliferative activity (HCT-116 cells) | antiproliferative activity in NPC1−/− (M12) CHO cells compared to wt CHO cells (NPC1^−/− (M12) CHO cells) | binding affinity of 25-OHC for OSBP1(M446W) compared to wt (OSBP1(M446W)) | 25-OHC KD of OSBP1(V582M) compared to wt (OSBP1(V582M)) | cytotoxicity (HCT-116 cells; concentrations up to 10 μM, cell line not given at the place)
C[C@@H]1[C@]2(O[C@H]3C=C4[C@@H]5CC[C@H]6Cc7nc8c(nc7C[C@]6(C)[C@H]5C[C@@H](O)[C@]4(C)[C@]31O)C[C@@H]1CC[C@H]3C4=CC[C@@H]5[C@H](C)[C@@]6(OC[C@]45C(=O)C[C@@H]3[C@@]1(C)C8)OC(C)(C)C[C@H]6O)O[C@](C)(CO)C[C@H]2O [cephalostatin 1, Cephalostatin 1] | 18 fold | unchanged | unchanged | nearly complete desensitization | no change | – | – | –
C[C@H](CCCC(C)(C)O)[C@H]1CC[C@H]2[C@@H]3CC=C4C[C@@H](O)CC[C@]4(C)[C@H]3CC[C@]12C [Compound 25-OHC, 25-hydroxycholesterol] | – | – | – | – | – | identical to wt | slightly higher | not cytotoxic
schweinfurthin A | 2.7 fold | unchanged | unchanged | – | no change | – | – | –
COc1ccc(C(=O)O[C@H]2[C@H](O[C@@H]3[C@@H](OC(C)=O)[C@H](O[C@H]4C[C@H]5[C@@H]6CC=C7C[C@@H](O)CC[C@]7(C)[C@H]6CC[C@]5(C)[C@@]4(O)[C@H](C)C(=O)CCC(C)C)OC[C@@H]3O)OC[C@@H](O)[C@@H]2O)cc1 [OSW-1] | 3.9 fold | unchanged | unchanged | nearly complete desensitization | no change | – | – | –
